Laboratory results from US20040001839A1, “Multimers - isolated molecules comprising epitopes containing sulfated moieties, antibodies to such epitopes, and uses thereof” (priority 2000, published 2004).
No end group written: not given here. *: point of attachment. sulfate = O=S(=O)(O)*

Legend:
[1] = tested on: KG-1 cells; test: AML KG-1 model in NOD/SCID mice; assay type: in vivo
Experimental: The in vivo mouse model for human AML uses SCID/NOD mice (Jackson Laboratories) inoculated with KG-1 cells derived from a human AML cell line.
In a first experiment, NOD/SCID mice were pretreated with 100 mg/kg CYTOXAN®. Four days post CYTOXAN® injection, KG-1 cells were injected intravenously into the tail vein of six groups of mice. (Table N, Groups 2 and 5-9). One group of mice (Table N, Group 1) was injected with PBS alone (control). [273.][273.]
Beginning 19 days post KG-1 injection mice were treated with: CONY1, Doxorubicin, CONY1-Doxorubicin conjugate, or Mylotarg®. (Mylotarg® is a monoclonal antibody (anti CD33) conjugated chemically to calcheamicin recently approved by the FDA for treatment of AML patients age 60 and over in a first relapse.) Mice were treated once or three times per week for three weeks. One group (group 2) of KG-1 inoculated mice were left untreated. (Table N). Two other groups of mice (groups 3 and 4) were injected with KG-1 cells that were previously incubated with CONY1 or 181-scFv (a negative, non-specific control antibody) in serum free RPMI containing 1% BSA at 4° C. for 1 h. The antibodies were used at a concentration of 0.25 mg scFv/10^8 cells (75 μg/mouse). Before injection into the mice the preincubated KG-1 cells were washed and resuspended in RPMI. The KG-1 cells in RPMI were inoculated into mice at a concentration of 75 μg scFv/0.2 ml RPMI per mouse. Group 3 mice were inoculated with KG-1+CONY1, and group 4 mice were inoculated with KG-1+181-scFv. (Table N). This treatment (group 3 and 4) was carried out one day after the inoculation of groups 1-2 and 5-9, i.e., at five days after CYTOXAN injection.
Mice were sacrificed from 60 to 65 days post cell injection. Bone marrow and blood samples were analyzed by flow cytometry using mouse anti human CD34-FITC (IQP 144F) (or anti CD44-FITC (MCA89F, Serotec)) and Y1-Biotin/SAV-PE. Mouse IgG1-FITC (IQP 191-F) was used as an isotype control, and mouse IgG2a-FITC (MCA929F, Serotec) was used as a negative control. Flow cytometry was performed using FACSCalibur system and CellQwest software, Becton Dickinson.
An additional experiment was performed in which SCID-NOD mice were i.v. injected with 3×10^4 MOLT-4 cells/mouse 5 days post treatment with cyclophosphamide. Anti-cancer agents or PBS were injected IV three times/week, from day 14 onward. On day 60, blood was drawn, then the animals were sacrificed. Bone marrow was extracted and analyzed by FACS analysis using a commercially available antiCD44 antibody for the detection of MOLT-4 cells in the mice bone marrow cell population.

[2] = tested on: scFv Y1 binding to glycocalicin; test: Competitive binding ELISA of sulfated peptides (scFv Y1 binding to immobilized glycocalicin); set-up: species or system human; settings: peptide 1, 10 and 100 μM, preincubated 10 minutes with scFv Y1
Experimental: A competitive binding ELISA assay was used to assess the importance of the presence and position of sulfated tyrosines to the binding of peptides to Y1.
Glycocalicin was immobilized on a Maxisorb plate. scFv Y1 was preincubated with a peptide of interest for 10 minutes at three different concentrations (1, 10 and 100 μM) in order to observe a dose response. (Table 12). After preincubation, the mixture (Y1+peptide) was added to the plate, and binding of scFv Y1 was assessed using polyclonal rabbit anti-VL, which recognizes the VL chain of scFv Y1, followed by anti-rabbit-HRP. In mixtures in which the peptide bound to scFv Y1, a decrease in the binding of scFv Y1 to glycocalicin compared to control binding was observed.

COc1cccc2c1C(=O)c1c(O)c3c(c(O)c1C2=O)C[C@@](O)(C(=O)CO)C[C@@H]3O[C@H]1C[C@H](N)[C@H](O)[C@H](C)O1 [Doxorubicin]
percentage of KG-1 cells in bone marrow compared to group 2 (untreated) ([1]; 0.1 mg/kg free Doxorubicin, 3 times per week (group 6)): statistically significant (p<0.05) lower percentage of KG-1 cells
mice that died within three weeks after treatment initiation ([1]; 5 mg/kg free Doxorubicin, 1 time per week (group 7)): Nine out of 10
reduction in the number of tumor cells in the bone marrow ([1]; additional experiment, day 60, Doxorubicin alone or as conjugate 75 μg/mouse): 50%

GDEGDTDLY*DY*Y*PEEDTE (GDEGDTDLY(sulfate)DY(sulfate)Y(sulfate)PEEDTE) [G-Y*Y*Y*, GPIbα peptide, sulfated]
inhibition of Y1 binding to glycocalicin [2]: did inhibit

Mylotarg: monoclonal antibody (anti CD33) conjugated chemically to calcheamicin
KG-1 cells in bone marrow ([1]; 0.2 mg/kg, 1 time per week (group 9)): free of KG 1 cells
prevalence of bone marrow cancer, day 60 ([1]; additional experiment, 7 μg/mouse, once a week): completely inhibited

QATEYEY*LDY*DFLPETE (QATEYEY(sulfate)LDY(sulfate)DFLPETE) [P-YY*Y*, PSGL-1 n-terminus peptide, sulfated]
inhibition of Y1 binding to glycocalicin [2]: best inhibitors
